Source: ChEMBL document CHEMBL5465560, “Selectivity Literature for EUbOPEN Chemogenomic Library” (2024)

Assays:
[1] = molecular target: T1, Tyrosine-protein kinase Mer (Homo sapiens) (UniProt Q12866); experiment: Selectivity interaction (KinomeScan (DiscoverX)) EUB0001049a MERTK; conditions: at 1 µM
T1 sequence (whole entry): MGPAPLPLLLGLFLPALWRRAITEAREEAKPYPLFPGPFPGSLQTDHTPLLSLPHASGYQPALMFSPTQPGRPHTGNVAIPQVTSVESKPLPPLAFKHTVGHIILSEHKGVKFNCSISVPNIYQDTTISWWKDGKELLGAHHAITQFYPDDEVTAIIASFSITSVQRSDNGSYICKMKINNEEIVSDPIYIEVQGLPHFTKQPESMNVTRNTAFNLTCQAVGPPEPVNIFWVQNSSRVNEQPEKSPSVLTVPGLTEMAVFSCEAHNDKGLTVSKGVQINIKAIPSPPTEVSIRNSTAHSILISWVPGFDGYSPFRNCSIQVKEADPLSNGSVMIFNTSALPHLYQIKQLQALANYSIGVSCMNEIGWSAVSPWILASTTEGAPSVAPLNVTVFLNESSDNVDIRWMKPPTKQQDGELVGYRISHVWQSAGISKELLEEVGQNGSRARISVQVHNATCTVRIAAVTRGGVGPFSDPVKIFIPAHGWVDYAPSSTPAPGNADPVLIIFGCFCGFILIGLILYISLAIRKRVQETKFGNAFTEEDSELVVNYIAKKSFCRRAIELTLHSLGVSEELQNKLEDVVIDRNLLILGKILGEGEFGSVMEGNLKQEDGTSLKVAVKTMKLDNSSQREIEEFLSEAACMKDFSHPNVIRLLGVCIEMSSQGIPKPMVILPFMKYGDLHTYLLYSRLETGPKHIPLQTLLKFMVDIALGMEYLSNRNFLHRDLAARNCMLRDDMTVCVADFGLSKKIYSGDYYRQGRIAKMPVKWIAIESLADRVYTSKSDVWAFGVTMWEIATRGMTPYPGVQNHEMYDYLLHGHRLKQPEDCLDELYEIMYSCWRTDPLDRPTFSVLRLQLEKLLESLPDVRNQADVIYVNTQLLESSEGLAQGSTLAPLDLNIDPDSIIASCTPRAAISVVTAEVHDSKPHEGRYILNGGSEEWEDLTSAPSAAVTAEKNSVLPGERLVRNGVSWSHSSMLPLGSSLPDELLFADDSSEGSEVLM

[2] = molecular target: T2, Proto-oncogene tyrosine-protein kinase Src (Homo sapiens, UniProt P12931); experiment: Selectivity interaction (Kinase panel (literature)) EUB0001199aCl SRC; conditions: at 1 µM
T2 sequence (P12931 2-536 limits assumed): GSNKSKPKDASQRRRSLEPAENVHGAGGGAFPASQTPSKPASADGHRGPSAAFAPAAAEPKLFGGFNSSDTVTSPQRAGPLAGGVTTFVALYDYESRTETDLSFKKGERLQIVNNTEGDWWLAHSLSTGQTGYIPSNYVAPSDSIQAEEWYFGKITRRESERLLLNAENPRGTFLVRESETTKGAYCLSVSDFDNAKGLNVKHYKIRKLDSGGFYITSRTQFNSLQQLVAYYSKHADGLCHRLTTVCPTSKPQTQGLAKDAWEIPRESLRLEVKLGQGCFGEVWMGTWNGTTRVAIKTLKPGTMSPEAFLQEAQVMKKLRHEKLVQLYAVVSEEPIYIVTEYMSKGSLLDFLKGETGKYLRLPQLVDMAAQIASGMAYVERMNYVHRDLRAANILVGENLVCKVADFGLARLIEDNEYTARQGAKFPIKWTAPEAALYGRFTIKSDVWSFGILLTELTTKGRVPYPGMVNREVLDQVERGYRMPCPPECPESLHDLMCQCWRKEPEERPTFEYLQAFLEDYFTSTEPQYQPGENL

[3] = molecular target: Serine/threonine-protein kinase SBK1 (Homo sapiens) (UniProt Q52WX2); experiment: Selectivity interaction (KinomeScan (DiscoverX)) EUB0000666a SBK1; conditions: at 10 µM
Serine/threonine-protein kinase SBK1 (Homo sapiens), sequence (Q52WX2 whole entry): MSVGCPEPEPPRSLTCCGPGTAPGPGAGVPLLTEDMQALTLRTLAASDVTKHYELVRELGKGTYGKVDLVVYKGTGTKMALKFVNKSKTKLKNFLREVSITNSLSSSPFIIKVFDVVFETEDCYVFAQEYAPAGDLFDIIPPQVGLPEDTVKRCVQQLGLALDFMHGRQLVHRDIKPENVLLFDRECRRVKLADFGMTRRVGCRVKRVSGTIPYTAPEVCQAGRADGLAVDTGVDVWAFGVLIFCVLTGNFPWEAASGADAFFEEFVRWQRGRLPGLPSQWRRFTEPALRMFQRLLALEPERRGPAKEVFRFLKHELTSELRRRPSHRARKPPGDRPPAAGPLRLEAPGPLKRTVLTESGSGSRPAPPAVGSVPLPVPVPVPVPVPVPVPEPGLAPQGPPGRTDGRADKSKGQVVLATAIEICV

[4] = molecular target: Histone-lysine N-methyltransferase, H3 lysine-79 specific (Homo sapiens, UniProt Q8TEK3); conditions: at 10 µM
Histone-lysine N-methyltransferase, H3 lysine-79 specific, sequence (Q8TEK3 whole entry, looked up): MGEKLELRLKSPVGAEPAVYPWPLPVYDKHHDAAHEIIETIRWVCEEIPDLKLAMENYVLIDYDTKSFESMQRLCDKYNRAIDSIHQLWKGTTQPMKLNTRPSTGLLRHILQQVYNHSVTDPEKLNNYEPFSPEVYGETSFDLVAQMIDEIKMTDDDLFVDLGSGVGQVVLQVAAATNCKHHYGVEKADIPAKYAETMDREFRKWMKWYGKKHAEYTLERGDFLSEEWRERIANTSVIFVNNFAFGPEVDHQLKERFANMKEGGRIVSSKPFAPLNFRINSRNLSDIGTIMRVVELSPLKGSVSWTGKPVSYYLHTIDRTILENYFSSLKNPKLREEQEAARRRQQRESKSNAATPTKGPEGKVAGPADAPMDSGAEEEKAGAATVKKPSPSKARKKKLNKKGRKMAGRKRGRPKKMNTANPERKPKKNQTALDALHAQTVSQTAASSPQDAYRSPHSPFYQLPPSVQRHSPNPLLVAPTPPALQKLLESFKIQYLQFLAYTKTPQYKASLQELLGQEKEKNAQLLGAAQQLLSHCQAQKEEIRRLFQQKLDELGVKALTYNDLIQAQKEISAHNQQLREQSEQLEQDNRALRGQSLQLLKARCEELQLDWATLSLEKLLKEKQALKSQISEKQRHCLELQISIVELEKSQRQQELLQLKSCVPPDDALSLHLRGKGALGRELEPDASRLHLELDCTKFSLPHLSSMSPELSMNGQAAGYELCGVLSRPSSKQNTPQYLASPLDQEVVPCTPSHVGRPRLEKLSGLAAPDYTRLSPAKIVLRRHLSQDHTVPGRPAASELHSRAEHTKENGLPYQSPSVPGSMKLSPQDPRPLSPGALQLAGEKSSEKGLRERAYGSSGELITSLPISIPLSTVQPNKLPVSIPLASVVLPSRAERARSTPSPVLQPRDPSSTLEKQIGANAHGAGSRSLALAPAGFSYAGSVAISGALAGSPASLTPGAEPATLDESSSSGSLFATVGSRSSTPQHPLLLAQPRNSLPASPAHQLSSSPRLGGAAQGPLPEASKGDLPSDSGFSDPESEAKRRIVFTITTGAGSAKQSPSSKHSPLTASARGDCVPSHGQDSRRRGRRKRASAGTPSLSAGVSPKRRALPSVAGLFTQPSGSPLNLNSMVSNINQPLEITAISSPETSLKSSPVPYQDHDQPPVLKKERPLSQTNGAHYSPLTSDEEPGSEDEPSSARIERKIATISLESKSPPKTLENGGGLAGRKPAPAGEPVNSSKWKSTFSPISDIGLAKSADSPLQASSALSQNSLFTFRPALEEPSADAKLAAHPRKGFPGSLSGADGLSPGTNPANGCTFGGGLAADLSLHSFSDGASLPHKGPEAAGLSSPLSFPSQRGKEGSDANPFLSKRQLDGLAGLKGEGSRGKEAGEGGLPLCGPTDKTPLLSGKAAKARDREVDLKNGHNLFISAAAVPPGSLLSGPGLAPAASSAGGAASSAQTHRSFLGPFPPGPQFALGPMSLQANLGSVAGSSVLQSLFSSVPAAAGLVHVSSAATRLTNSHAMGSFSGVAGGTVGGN

[5] = molecular target: T3, Serine/threonine-protein kinase TAO2 (Homo sapiens) (UniProt Q9UL54); experiment: Selectivity interaction (KinomeScan (DiscoverX)) EUB0001079a TAOK2; conditions: at 1 µM
T3 sequence (whole entry): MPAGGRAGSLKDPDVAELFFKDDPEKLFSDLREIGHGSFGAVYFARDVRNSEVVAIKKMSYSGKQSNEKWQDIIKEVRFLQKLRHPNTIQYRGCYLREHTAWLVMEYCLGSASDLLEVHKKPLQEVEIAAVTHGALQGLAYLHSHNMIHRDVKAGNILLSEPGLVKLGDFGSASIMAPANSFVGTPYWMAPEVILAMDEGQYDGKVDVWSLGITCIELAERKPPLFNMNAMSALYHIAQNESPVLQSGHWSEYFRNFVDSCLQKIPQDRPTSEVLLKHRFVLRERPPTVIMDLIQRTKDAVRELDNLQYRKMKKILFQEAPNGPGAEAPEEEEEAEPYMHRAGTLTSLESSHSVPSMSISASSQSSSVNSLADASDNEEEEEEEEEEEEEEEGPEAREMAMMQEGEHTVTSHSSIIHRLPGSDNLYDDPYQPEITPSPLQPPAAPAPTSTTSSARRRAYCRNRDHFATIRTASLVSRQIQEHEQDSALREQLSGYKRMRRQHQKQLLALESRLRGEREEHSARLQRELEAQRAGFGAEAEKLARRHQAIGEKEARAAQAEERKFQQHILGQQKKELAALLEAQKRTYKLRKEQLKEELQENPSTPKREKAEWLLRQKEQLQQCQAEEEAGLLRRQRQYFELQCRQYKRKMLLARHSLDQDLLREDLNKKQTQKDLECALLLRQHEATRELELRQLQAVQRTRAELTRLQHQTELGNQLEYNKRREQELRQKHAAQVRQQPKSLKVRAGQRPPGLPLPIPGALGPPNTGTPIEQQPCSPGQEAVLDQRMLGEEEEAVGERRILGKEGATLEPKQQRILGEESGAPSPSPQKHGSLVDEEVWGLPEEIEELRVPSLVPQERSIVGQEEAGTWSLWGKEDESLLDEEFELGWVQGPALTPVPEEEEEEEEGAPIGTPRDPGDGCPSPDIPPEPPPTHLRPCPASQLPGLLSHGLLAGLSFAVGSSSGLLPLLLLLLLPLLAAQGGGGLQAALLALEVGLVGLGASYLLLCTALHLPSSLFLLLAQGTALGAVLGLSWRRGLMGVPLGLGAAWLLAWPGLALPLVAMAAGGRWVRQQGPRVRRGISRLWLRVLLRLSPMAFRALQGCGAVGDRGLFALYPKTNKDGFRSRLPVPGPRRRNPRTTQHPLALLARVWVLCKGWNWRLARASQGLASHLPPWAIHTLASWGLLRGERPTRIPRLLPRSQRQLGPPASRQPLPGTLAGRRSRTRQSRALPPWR

[6] = molecular target: Histone-lysine N-methyltransferase 2A (Homo sapiens) (UniProt Q03164); experiment: Selectivity interaction (Human bromodomain panel (DSF assay)) EUB0000233b MLL
[7] = molecular target: T2, Proto-oncogene tyrosine-protein kinase Src; experiment: Selectivity interaction (KinomeScan (DiscoverX)) EUB0000045b SRC
[8] = molecular target: Leukocyte tyrosine kinase receptor (Homo sapiens, UniProt P29376); conditions: at 10 µM
Leukocyte tyrosine kinase receptor, sequence (P29376 whole entry): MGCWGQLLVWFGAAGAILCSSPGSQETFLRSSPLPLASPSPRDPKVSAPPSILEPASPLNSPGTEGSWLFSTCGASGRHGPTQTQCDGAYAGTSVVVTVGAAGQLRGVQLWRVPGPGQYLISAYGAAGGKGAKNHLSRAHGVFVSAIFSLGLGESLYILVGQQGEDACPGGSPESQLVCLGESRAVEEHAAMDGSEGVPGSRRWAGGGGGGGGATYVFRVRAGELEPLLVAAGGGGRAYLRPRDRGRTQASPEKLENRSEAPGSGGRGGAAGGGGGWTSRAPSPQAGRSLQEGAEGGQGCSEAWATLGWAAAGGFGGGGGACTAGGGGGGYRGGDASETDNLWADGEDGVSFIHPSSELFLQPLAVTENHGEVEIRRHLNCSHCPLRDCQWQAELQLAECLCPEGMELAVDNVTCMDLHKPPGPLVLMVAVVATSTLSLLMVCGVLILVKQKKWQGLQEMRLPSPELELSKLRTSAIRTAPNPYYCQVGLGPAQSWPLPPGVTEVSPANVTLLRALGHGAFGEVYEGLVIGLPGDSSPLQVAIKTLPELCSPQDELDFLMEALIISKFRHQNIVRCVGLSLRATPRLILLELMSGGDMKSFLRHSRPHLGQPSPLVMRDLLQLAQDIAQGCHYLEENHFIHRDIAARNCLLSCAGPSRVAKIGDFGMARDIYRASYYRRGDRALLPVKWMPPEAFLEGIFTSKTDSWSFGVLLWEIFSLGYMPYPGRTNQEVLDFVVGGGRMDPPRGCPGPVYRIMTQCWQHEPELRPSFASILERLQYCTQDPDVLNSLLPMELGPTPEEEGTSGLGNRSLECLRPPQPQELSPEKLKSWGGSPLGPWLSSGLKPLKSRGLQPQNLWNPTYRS

[9] = molecular target: Serine/threonine-protein kinase 24 (Homo sapiens) (UniProt Q9Y6E0); experiment: Selectivity interaction (Upstate Kinase Profiler service (Millipore)) EUB0000056c STK24; conditions: at 1 µM
Serine/threonine-protein kinase 24 (Homo sapiens), sequence (Q9Y6E0 whole entry, looked up): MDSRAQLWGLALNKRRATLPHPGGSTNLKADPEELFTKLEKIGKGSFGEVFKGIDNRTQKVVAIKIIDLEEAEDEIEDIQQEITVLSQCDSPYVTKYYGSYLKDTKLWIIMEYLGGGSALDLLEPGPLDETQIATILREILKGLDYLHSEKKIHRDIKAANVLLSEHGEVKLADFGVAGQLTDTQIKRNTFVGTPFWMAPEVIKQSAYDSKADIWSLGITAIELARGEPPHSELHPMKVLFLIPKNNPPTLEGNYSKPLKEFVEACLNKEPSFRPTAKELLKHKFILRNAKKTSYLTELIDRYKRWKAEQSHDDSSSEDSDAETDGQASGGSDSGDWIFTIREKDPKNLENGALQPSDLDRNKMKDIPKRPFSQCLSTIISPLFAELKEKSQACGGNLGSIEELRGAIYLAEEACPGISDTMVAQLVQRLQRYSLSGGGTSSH

[10] = Selectivity interaction (KinomeScan (DiscoverX)) EUB0000695a PKNB; conditions: at 100 nM

With `COc1cc(Nc2nc(C)cc(-c3cnn4nc(OC)ccc34)n2)cc(C(F)(F)F)c1` the % of control [1] was 98%.

Work on `CN1Cc2nccc(-c3cn(C)nc3-c3ccc(F)cc3)c2C1=O` yielded a % of inhibition [2] of 6%.

Work on `O=C(NOC[C@H](O)CO)c1ccc(F)c(F)c1Nc1ccc(I)cc1F` yielded a % of control [3] of 100%.

In the case of `CNCCN1CCC(c2cc(CN(C)C(=O)c3cccc(Oc4ccccc4)c3)ccn2)CC1`, the % activity [4] is reported as > 90%.

`Nc1cnc(N2CCc3cc(S(=O)(=O)Nc4c(F)cc(Cl)cc4F)cc(N4CCCC4=O)c32)nc1` [TP-020n] gave a % of control [5] of 78%.

With `CN(C)CCCOc1ccc(-c2cc(NCCCn3cccn3)nc(S(C)(=O)=O)n2)cc1` the dTM [6] was < 2 K.

For `C=CC(=O)Nc1cc(-n2c(=O)ccc3cnc4ccc(-c5ccc(NS(C)(=O)=O)cc5)cc4c32)ccc1C`, the % of control ([7]; at 1 µM) was 92% and the % of control ([7]; at 10 µM) was 100%.

For `Cc1cc([C@@H](C)Nc2ccccc2C(=O)O)c2nc(N3CCOCC3)cc(=O)n2c1` [AZD-6482], the % of control [8] was 95%.

In the case of `Cc1ccc(-c2ccc3c(ccc4sc5c(c43)NC[C@@H](C)NC5=O)n2)cn1`, the % of inhibition [9] is reported as 33%.

In the case of `Cc1cc(F)c(C(=O)Nc2cccc(-c3nncn3C(C)C)n2)cc1-n1cnc(C2CC2)c1`, the % of control [10] is reported as 100%.
